Measurements from US12384772B2, “Inhibitors” (VIVORYON THERAPEUTICS N.V., priority 2017, dated 2025).
Read-outs that look alike come from different tables or passages of the source.

Molecular target: Glutaminyl cyclase (QC) (Homo sapiens (Human), UniProt Q16769)
Assay: Glutaminyl cyclase assay, determination of IC50 values and calculation of Ki values (H-Gln-AMC substrate, pGAP auxiliary enzyme; pH 8.0 or pH 6.0)
Format: biochemical
Experimental: 10 mM compound stock solutions were prepared in DMSO. For IC50 determination compound stocks were serially diluted (1:3) in DMSO.
All measurements were performed with an EnSpire Perkin Elmer multimode reader using glutaminyl-7-amino-4-methylcoumarin (H-Gin-AMC) as substrate and recombinant pyroglutamyl aminopeptidase (pGAP) as auxiliary enzyme. Reactions were carried out at ambient temperature in black 96-well half area microplates. Each sample consisted of 1 μl test compound solution or solvent (DMSO) and 49 μl QC appropriately diluted in assay buffer (50 mM Tris/HCl, pH 8.0 or 50 mM MES buffer, pH=6.0). After a 10 min preincubation at ambient temperature the enzyme reaction was started by adding 50 μl of Gln-AMC-substrate/pGAP mixture in assay buffer. Final substrate concentrations were 50 and 200 μM for measurement at pH 8.0 or 6.0, respectively. Release of flourogenic AMC were recorded at excitation/emission wavelengths of 380/460 nm. Initial velocity of the enzyme reaction was calculated by linear regression of the first 10 data points using the Enspire Manager software. Final evaluation and calculation of IC50s were performed using GraphPad Prism software.
Ki-values were calculated according to the following formula: Ki=IC50/(1+[S]/Km), where: […]

[1] = pH 6, read-out: hQC Ki [μM] pH6
[2] = pH 8, read-out: hQC Ki [μM] pH8

Sequence of Glutaminyl cyclase (QC) (Q16769 29-361): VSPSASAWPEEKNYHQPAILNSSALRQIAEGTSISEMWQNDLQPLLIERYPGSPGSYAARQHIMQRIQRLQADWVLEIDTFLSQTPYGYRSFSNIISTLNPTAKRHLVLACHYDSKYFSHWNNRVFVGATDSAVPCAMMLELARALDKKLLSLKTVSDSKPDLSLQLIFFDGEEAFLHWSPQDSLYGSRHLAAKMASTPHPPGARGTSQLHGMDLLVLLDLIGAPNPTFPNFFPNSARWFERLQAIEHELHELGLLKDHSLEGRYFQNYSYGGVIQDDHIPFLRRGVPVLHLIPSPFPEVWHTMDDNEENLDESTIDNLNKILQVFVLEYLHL

| Structure (SMILES) | Ki [1] [µM] | Ki [2] [µM] |
| --- | --- | --- |
| Nc1nnc(CCCNc2ccccc2-c2ccc(F)cc2)s1 [Comp 93, 5-[3-({4′-fluoro-[1,1′-biphenyl]-2-yl}amino)propyl]-1,3,4-thiadiazol-2-amine] | 2.6 | 1100 |
| Nc1nnc(SCCNc2ccccc2-c2ccc(F)cc2)s1 [Comp 94, 5-{[2-({4′-fluoro-[1,1′-biphenyl]-2-yl}amino)ethyl]sulfanyl}-1,3,4-thiadiazol-2-amine] | 2.97 | 11.5 |
| Cn1cnnc1CCCNc1ccccc1-c1ccc(F)cc1 [Comp 328, 4′-fluoro-N-[3-(4-methyl-4H-1,2,4-triazol-3-yl)propyl]-[1,1′-biphenyl]-2-amine] | 1.97 | 2.86 |
| COc1ccc(-c2ccccc2NCCCc2nncn2C)cc1OC [Comp 384, 3′,4′-dimethoxy-N-[3-(4-methyl-4H-1,2,4-triazol-3-yl)propyl]-[1,1′-biphenyl]-2-amine] | 0.13 | 0.26 |
| Cn1cnnc1-c1ccc(Nc2ccccc2-c2ccc(F)cc2)cc1 [Comp 826, 4′-fluoro-N-[4-(4-methyl-4H-1,2,4-triazol-3-yl)phenyl]-[1,1‘-biphenyl]-2-amine] | 1.44 | 1.74 |
| Cn1cnnc1-c1ccc(Nc2cccnc2-c2ccc(F)cc2)cc1 [Comp 852, 2-(4-fluorophenyl)-N-[4-(4-methyl-4H-1,2,4-triazol-3-yl)phenyl]pyridin-3-amine] | 2.69 | 5.05 |
| Nc1nnc(C2CCN(c3ccccc3-c3ccc(F)cc3)CC2)s1 [Comp 1075, 5-(1-{4′-fluoro-[1,1′-biphenyl]-2-yl}piperidin-4-yl)-1,3,4-thiadiazol-2-amine] | 0.09 | 0.248 |
| Fc1ccc(-c2ccccc2NCc2ccc3[nH]cnc3c2)cc1 [Comp 1226, N-[(1H-1,3-benzodiazol-5-yl)methyl]-4′-fluoro-[1,1′-biphenyl]-2-amine] | 5.91 | 5.29 |
| Fc1ccc(-c2cccnc2NCc2ccc3[nH]cnc3c2)cc1 [Comp 1234, N-(1H-1,3-benzodiazol-5-ylmethyl)-3-(4-fluorophenyl)pyridin-2-amine] | 58.8 | 12.3 |
| Fc1ccc(-c2ncccc2NCc2ccc3[nH]cnc3c2)cc1 [Comp 1252, N-(1H-1,3-benzodiazol-5-ylmethyl)-2-(4-fluorophenyl)pyridin-3-amine] | 145 | 22 |
| COc1ccc(NS(=O)(=O)NCCSc2nncn2C)cc1OC [Comp 1332, [(3,4-dimethoxyphenyl)sulfamoyl]({2-[(4-methyl-4H-1,2,4-triazol-3-yl)sulfanyl]ethyl})amine] | 13.6 | 11.8 |
| COc1ccc(-c2ccccc2Nc2ccc(-c3nncn3C)cc2)cc1 [D3, N-[2-(4-methoxyphenyl)phenyl]-4-(4-methyl-4H-1,2,4-triazol-3-yl)aniline] | 0.99 | 1.69 |
| COc1ccc(-c2ncccc2Nc2ccc(-c3nncn3C)cc2)cc1 [D4, 2-(4-methoxyphenyl)-N-[4(4-methyl-4H-1,2,4-triazol-3-yl)phenyl]pyridin-3-amine] | 1.7 | 3.37 |
| Cn1cnnc1-c1ccc(Nc2ccccc2-c2ccc(Oc3ccccc3)cc2)cc1 [D6, 4-(4-methyl-4H-1,2,4-triazol-3-yl)-N-[2-(4-phenoxyphenyl)phenyl]aniline] | 1.33 | 1.81 |
| Nc1nnc(CCCNS(=O)(=O)c2ccc(F)cc2)s1 [E2, N-[3-(5-amino-1,3,4-thiadiazol-2-yl)propyl]-4-fluorobenzene-1-sulfonamide] | 18.1 | 9.38 |
| Nc1nnc(SCCNS(=O)(=O)c2ccc(F)cc2)s1 [E3, N-{2-[(5-amino-1,3,4-thiadiazol-2-yl)sulfanyl]ethyl}-4-fluorobenzene-1-sulfonamide] | 19.9 | 26.5 |
| CS(=O)(=NCCCc1nnc(N)s1)c1ccc(F)cc1 (centres unmarked) [F2, 5-(3-{[(4-fluorophenyl)(methyl)oxo-λ^6-sulfanylidene]amino}propyl)-1,3,4-thiadiazol-2-amine] | 11.4 | 11.7 |
| Cn1cnnc1SCCNS(=O)(=O)c1ccc(F)cc1 [G2, 4-fluoro-N-{2-[(4-methyl-4H-1,2,4-triazol-3-yl)sulfanyl]ethyl}benzene-1-sulfonamide] | 8.84 | 11.5 |
| Nc1ncc(-c2ccc(NS(=O)(=O)c3ccc(F)cc3)cc2)s1 [I1, N-[4-(2-amino-1,3-thiazol-5-yl)phenyl]-4-fluorobenzene-1-sulfonamide] | 2.93 | 2.64 |
| Nc1ncc(C2CCN(S(=O)(=O)c3ccc(F)cc3)CC2)s1 [M1, 5-[1-(4-fluorobenzenesulfonyl)piperidin-4-yl]-1,3-thiazol-2-amine] | 1.32 | 1.7 |
| Nc1nnc(C2CCN(S(=O)(=O)c3ccc(F)cc3)CC2)s1 [M2, 5-[1-(4-fluorobenzenesulfonyl)piperidin-4-yl]-1,3,4-thiadiazol-2-amine] | 1.18 | 1.6 |
| Cn1cnnc1C1CCN(S(=O)(=O)c2ccc(F)cc2)CC1 [N1, 1-(4-fluorobenzenesulfonyl)-4-(4-methyl-4H-1,2,4-triazol-3-yl)piperidine] | 3.05 | 3.3 |
| COc1ccc(-c2ccccc2NCc2ccc3[nH]cnc3c2)cc1 [O3, N-(1H-1,3-benzodiazol-5-ylmethyl)-2-(4-methoxyphenyl)aniline] | 1.44 | 1.65 |
| COc1ccc(-c2ncccc2NCc2ccc3[nH]cnc3c2)cc1 [O4, N-(1H-1,3-benzodiazol-5-ylmethyl)-2-(4-methoxyphenyl)pyridin-3-amine] | 9.52 | 2.96 |

The next lines start with the values.

| Ki [1] [µM] | Ki [2] [µM] | Structure (SMILES) |
| --- | --- | --- |
| 1.87 | 1.48 | COc1ccc(-c2ccccc2Nc2ccc(-c3nnc(N)s3)cc2)cc1 [C4, 5-(4-{[2-(4-methoxyphenyl)phenyl]amino}phenyl)-1,3,4-thiadiazol-2-amine] |
| 4.17 | 4.7 | COc1ccc(-c2cccnc2Nc2ccc(-c3nnc(N)s3)cc2)cc1 [C5, N-[4-(5-amino-1,3,4-thiadiazol-2-yl)phenyl]-3-(4-methoxyphenyl)pyridin-2-amine] |
| 7.16 | 4.22 | COc1ccc(-c2cnccc2Nc2ccc(-c3nnc(N)s3)cc2)cc1 [C6, N-[4-(5-amino-1,3,4-thiadiazol-2-yl)phenyl]-3-(4-methoxyphenyl)pyridin-4-amine] |
| 54.7 | 7.46 | COc1ccc(-c2cnccc2Nc2ccc(-c3nnc(N)s3)cc2)cc1OC [C7, N-[4-(5-amino-1,3,4-thiadiazol-2-yl)phenyl]-3-(3,4-dimethoxyphenyl)pyridin-4-amine] |
| 1.66 | 6.89 | Nc1nnc(-c2ccc(Nc3nccnc3-c3ccc(F)cc3)cc2)s1 [C9, N-[4-(5-amino-1,3,4-thiadiazol-2-yl)phenyl]-3-(4-fluorophenyl)pyrazin-2-amine] |
| 4.37 | 2.23 | Nc1nnc(-c2ccc(Nc3ccccc3-c3ccc(Oc4ccccc4)cc3)cc2)s1 [C10, 5-(4-{[2-(4-phenoxyphenyl)phenyl]amino}phenyl)-1,3,4-thiadiazol-2-amine] |
| 2.15 | 2.36 | CCCOc1ccc(-c2ccccc2Nc2ccc(-c3nnc(N)s3)cc2)cc1 [C11, 5-(4-([2-(4-propoxyphenyl)phenyl]amino)phenyl)-1,3,4-thiadiazol-2-amine] |
| 1.51 | 3.27 | CC(C)Oc1ccc(-c2ccccc2Nc2ccc(-c3nnc(N)s3)cc2)cc1 [C12, 5-[4-({2-[4-{propan-2-yloxy)phenyl]phenyl}amino)phenyl]-1,3,4-thiadiazol-2-amine] |
| 1.1 | 0.97 | COc1ccc(-c2ccccc2NCCSc2nnc(N)s2)cc1OC [Comp 178, 5-{[2-({3′,4′-dimethoxy-[1,1′-biphenyl]-2-yl}amino)ethyl]sulfanyl}-1,3,4-thiadiazol-2-amine] |
| 2.69 | 4.27 | Nc1nnc(-c2ccc(Nc3ncccc3-c3ccc(F)cc3)cc2)s1 [Comp 521, N-[4-(5-amino-1,3,4-thiadiazol-2-yl)phenyl]-3-(4-fluorophenyl)pyridin-2-amine] |
| 0.42 | 1.09 | COc1ccc(-c2ccccc2Nc2ccc(-c3nnc(N)s3)cc2)cc1OC [Comp 561, 5-(4-{[2-(3,4-dimethoxyphenyl)phenyl]amino}phenyl)-1,3,4-thiadiazol-2-amine] |
| 0.44 | 1.48 | COc1ccc(-c2ccccc2Nc2ccc(-c3nncn3C)cc2)cc1OC [Comp 854, 3′,4′-dimethoxy-N-[4-(4-methyl-4H-1,2,4-triazol-3-yl)phenyl]-[1,1′-biphenyl]-2-amine] |
| 0.12 | 0.27 | COc1ccc(-c2ccccc2NCc2ccc3[nH]cnc3c2)cc1OC [Comp 1254, N-[(1H-1,3-benzodiazol-5-yl)methyl]-3′,4′-dimethoxy-[1,1′-biphenyl]-2-amine] |
| 0.1 | 0.23 | COc1ccc(-c2cccnc2NCc2ccc3[nH]cnc3c2)cc1OC [Comp 1262, N-(1H-1,3-benzodiazol-5-ylmethyl)-3-(3,4-dimethoxyphenyl)pyridin-2-amine] |
| – | 10.1 | COc1ccc(-c2cnccc2Nc2ccc(-c3nncn3C)cc2)cc1OC [D7, 3-(3,4-dimethoxyphenyl)-N-[4-(4-methyl-4H-1,2,4-triazol-3-yl)phenyl]pyridin-4-amine] |
